# Read-outs that look alike come from different tables or passages of the source.
# Tested on: adolescents with single ventricle physiology after Fontan palliation
# Assay type: in vivo, human
# Method: A Phase I/II dose escalation trial of Udenafil in adolescents with single ventricle physiology after Fontan palliation was conducted. […] The 36 subjects enrolled in the trial were comprised of 6 cohorts, as described in Table 1. The goals for this trial were to assess the safety of udenafil at multiple dose levels over a five-day period, the pharmacokinetic profile of udenafil in adolescents with Fontan physiology, and the short-term effect of udenafil on pharmacodynamic measures of exercise capacity, ventricular performance, and vascular function. Multiple doses of udenafil or a pharmaceutically acceptable salt thereof were administered to male and female Fontan patients who are 14-18 years of age. Inclusion Criteria for the trial were: • Males and females with Fontan physiology who are 14-18 years of age. • Willingness to return to center to complete blood draws and exercise tests as described in the study protocol. • Patients must agree to abstain from alcohol, caffeinated beverages, and grapefruit juice for the duration of the trial. • Informed assent from subject and informed consent from parent/legal guardian as appropriate. […] The purpose of this example was to describe and evaluate the safety of the udenafil compositions administered in the study described in Example 1. Tables 3-6 present numbers of subjects reporting at least one AE; data are presented by treatment group. The counts are presented by AE category (Table 3) and by preferred term (Table 6). Tables 3-6 report all AEs by category (Table 3), serious AEs (Table 4), non-serious AEs (Table 5), and all AEs by preferred term (Table 6). […] Tables 9-12 present AEs by preferred term (similar to Table 6), but additionally report the number of subjects with an AE and the number of AEs (Table 9), the number of AE events/subjects grouped by treatment group and by related (including possibly or probably) vs. not related to the study drug (Table 10), mild vs. moderate/severe (Table 11), and expected vs. unexpected AEs (Table 12).
compound,measurement,setting,value
CCCOc1ccc(S(=O)(=O)NCCC2CCCN2C)cc1-c1nc2c(CCC)nn(C)c2c(=O)[nH]1 (stereo not drawn) [udenafil],AE category: Musculoskeletal/skin,37.5 mg daily,1 (17%) n (%)
same,AE category: Musculoskeletal/skin,37.5 mg twice daily,1 (17%) n (%)
same,AE category: Musculoskeletal/skin,87.5 mg daily,1 (17%) n (%)
same,AE category: Musculoskeletal/skin,87.5 mg twice daily,2 (33%) n (%)
same,AE category: Musculoskeletal/skin,125 mg daily,2 (33%) n (%)
same,subjects who had expected adverse events,"both, human, in vivo, 5 day",27
same,subjects who had unexpected adverse events,"both, human, in vivo, 5 day",18
same,Subjects with adverse events possibly related to the study drug,"both, human, in vivo, 5 days",21 subjects
same,Subjects with adverse events probably related to the study drug,"both, human, in vivo, 5 days",11 subjects
same,Subjects with adverse events related to the study drug,"both, human, in vivo, 5 days",none
same,Subjects with adverse events unrelated to the study drug,"both, human, in vivo, 5 days",17 subjects
same,subjects who had a severe adverse event,"both, human, in vivo, 5 days",1
same,subjects who had mild adverse events,"both, human, in vivo, 5 days",27
same,subjects who had moderate adverse events,"both, human, in vivo, 5 days",13
same,Serious adverse events,in vivo,No serious AEs were reported
